# In US12030876B2, “Aryl hydrocarbon receptor (AHR) agonists and uses thereof” (Ikena Oncology, Inc., priority 2019, dated 2024):
# Read-outs that look alike come from different tables or passages of the source.
# Key:
# [1] = target: T1, AHR (Homo sapiens, UniProt P35869); test: DRE-Luciferase Reporter Assay, HepG2 (agonist); assay type: cell-based; conditions: read-out: DRE-Luc HepG2 - Agonist: Average EC50
# T1 construct: endogenous in cells; host or cells: HepG2 (human), transfected with a DRE-luciferase reporter only
# T1 sequence (P35869 11-848): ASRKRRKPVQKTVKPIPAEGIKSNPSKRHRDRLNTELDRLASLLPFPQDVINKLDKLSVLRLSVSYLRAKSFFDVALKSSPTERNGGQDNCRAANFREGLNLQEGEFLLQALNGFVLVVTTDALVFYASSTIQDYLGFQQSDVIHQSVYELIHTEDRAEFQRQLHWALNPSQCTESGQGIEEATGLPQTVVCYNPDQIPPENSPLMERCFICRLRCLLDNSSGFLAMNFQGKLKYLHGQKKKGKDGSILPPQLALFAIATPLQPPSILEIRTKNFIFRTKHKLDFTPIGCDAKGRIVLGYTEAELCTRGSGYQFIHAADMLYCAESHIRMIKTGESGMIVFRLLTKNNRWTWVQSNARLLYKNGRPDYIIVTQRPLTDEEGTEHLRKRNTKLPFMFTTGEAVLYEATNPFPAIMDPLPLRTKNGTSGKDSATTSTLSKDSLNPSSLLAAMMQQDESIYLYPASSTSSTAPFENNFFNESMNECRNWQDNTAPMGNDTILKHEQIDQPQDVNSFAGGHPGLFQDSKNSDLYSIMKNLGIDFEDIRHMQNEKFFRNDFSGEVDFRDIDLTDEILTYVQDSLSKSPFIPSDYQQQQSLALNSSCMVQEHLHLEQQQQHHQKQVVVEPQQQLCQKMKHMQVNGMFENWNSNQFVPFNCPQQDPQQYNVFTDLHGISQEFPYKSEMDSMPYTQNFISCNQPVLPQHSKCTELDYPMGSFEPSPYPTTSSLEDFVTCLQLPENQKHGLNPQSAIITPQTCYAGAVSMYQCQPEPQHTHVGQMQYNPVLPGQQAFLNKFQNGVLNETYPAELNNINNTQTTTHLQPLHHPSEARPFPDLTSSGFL
# In short: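 Cells carrying a stably or transiently transfected DRE-luciferase reporter, plated overnight at 37 C, then given agonist for 6, 16 or 24 h before lysis and luciferase read-out. Signal scaled between no ligand (minimum) and activating ligand alone, e.g. TCDD (maximum); EC50 = concentration giving half-maximal luciferase activity.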
# [2] = target: T2, AHR (Mus musculus, UniProt P30561); test: P450 CYP1A1 Luciferase Assay, Hepa1.6 (agonist); assay type: cell-based, murine; conditions: Hepa1.6, Table 2
# T2 sequence (P30561 1-848 F348L/P471L): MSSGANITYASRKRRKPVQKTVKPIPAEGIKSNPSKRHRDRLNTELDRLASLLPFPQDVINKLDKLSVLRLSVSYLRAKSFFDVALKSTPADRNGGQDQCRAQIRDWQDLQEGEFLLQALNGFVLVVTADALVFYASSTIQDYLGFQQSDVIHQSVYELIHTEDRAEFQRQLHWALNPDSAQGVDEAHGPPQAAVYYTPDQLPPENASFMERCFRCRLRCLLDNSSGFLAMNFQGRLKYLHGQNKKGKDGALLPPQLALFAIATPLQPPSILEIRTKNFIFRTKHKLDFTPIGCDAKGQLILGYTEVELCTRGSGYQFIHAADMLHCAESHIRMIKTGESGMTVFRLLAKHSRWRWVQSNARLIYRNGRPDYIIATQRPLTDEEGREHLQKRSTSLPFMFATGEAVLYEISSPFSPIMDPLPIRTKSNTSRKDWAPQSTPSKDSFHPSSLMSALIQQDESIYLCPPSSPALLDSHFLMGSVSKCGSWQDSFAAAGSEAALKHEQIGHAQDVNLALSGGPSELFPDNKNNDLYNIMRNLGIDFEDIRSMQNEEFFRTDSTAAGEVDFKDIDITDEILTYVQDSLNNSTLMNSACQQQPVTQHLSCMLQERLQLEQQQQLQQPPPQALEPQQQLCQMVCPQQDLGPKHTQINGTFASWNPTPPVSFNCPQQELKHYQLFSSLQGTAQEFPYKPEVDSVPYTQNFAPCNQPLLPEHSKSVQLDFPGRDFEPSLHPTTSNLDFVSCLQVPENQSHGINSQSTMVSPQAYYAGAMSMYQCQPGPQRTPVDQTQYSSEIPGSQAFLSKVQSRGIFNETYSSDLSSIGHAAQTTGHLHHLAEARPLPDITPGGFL
# Procedure: P450 CYP1A1 Luciferase Assay
# AHR binds to Dioxin Responsive Elements (DRE) upstream of genes that it activates. One measure of AHR activity is P450 CYP1A1 protein levels determined by measuring CYP1A1 enzyme activity using a luminogenic CYP1A1 luciferin-based substrate. Luciferase activity will reflect CYP1A1 activity resulting from activation of AHR in the cells.
# Murine Hepa1-6 or Hepa-1c1c7 or other murine cell line, human HepG2 or other human cell line are plated in media (96-well, 384-well or other plates) and incubated overnight at 37 C in a CO2 incubator.
# (§1) The next day, an AHR agonist compound is added. Cells are incubated for 6, 16 or 24 hours or another time point and then lysed and incubated with a CYP1A1 luciferase-based substrate (e.g. Luciferin-CEE) for 3, 6, or 12 hours of another time point. Determination of luciferase activity as a read-out of CYP1A1 enzyme activity can be measured with a commercial kit such as the Promega P450 Glo CYP1A1 detection reagent or any kit or reagents that provide for measuring luciferase activity. The level of luciferase with only activating ligand (e.g. such as TCDD, kynurenine, ITE (2-(1H-indole-3-ylcarbonyl)-4-thiazolecarboxylic methyl ester), VAF347, BNF (beta-naphthoflavone), ICZ (6-formylindolo(3,2-b) carbazole or other AHR ligands) added is the maximum signal while the luciferase with no ligand is the minimum signal. EC50s can be determined as the concentration which activates half of the maximum luciferase activity.
# [3] = system: DSS model of Inflammatory Bowel Disease (IBD); assay type: in vivo, C57Bl/6 mice
# Procedure: On study day −1, C57Bl/6 mice are weighed and randomized into treatment groups based on body weight. On study day 0, treatment groups are given 2.5% DSS in drinking water and treatment is initiated on the same day, with either vehicle or AHR agonist compound(s). On study day 7, DSS drinking water is replaced with normal drinking water for the remainder of the study. Body weight is measured daily during the entire study. On study day 10, animals are anesthetized with Isoflurane and bled to exsanguination followed by cervical dislocation. The entire colon is removed and measured for length, weight, and weight per length. Overall efficacy of test AR agonist compounds is based on body weight, colon length, and colon histopathology. Histopathology data is assessed for appropriate parameters, as determined by a pathologist and the parameters for these DSS studies can include inflammation, erosion, gland loss, edema, hyperplasia, neutrophil count, mucosal thickening, lymphoid aggregate count and lymphoid aggregate size. The different parameter scores can be added for a summed score for the study histopathology.
# [4] = system: Cyp1a1 gene expression; design: species or system C57BL/6N mice; conditions: mouse, in vivo
# Procedure: C57BL/6N mice are weighed and randomized into treatment groups with group size of 3-5 mice. On study Day 1, treatment is initiated and necropsies follow on day 1 at 4 and 12 hours post-dose and on Day 2, 24 hours post-dose. On Day 1, mice are dosed orally with one dose of the AHR agonist compound(s) that are in a suspension and mixed well before dosing. At the designated time, animals are euthanized and plasma and tissue taken for compound levels (PK) and compound effect (PD) on gene expression. Liver samples and proximal colon are weighed and then frozen for subsequent RNA extraction and RT-PCR analysis. AHR activation is determined by measuring Cyp1a1 gene expression relative to a housekeeping gene, such as GAPDH or HPRT. Cyp1a1 expression levels in the liver are compared to Cyp1a1 levels in the colon to determine a colon:liver ratio to determine the level of GI preferred AHR activation.
# [5] = target: T2, AHR; test: DRE-Luciferase Reporter Assay, Hepa1.6 (agonist); assay type: cell-based, murine; conditions: Hepa1.6, Table 3; read-out: DRE-Luc Hepa1.6 - Agonist: Average EC50
# Procedure: DRE-Luciferase Reporter Assay
# AHR binds to Dioxin Responsive Elements (DRE) upstream of genes that it activates. One measure of AHR activity is activation of a reporter gene, such as luciferase, downstream of one or multiple DRE elements. Luciferase activity reflects activation and inhibition of AHR in the cells expressing this reporter.
# Murine Hepa1-6 or Hepa-1c1c7 or other murine cell line with a DRE-luciferase reporter either stably or transiently transfected are plated in media in plates (96-well, 384-well or other plates) and incubated overnight at 37 C in a CO2 incubator. Likewise, human HepG2 or other human cell line with a DRE-luciferase reporter either stably or transiently transfected are plated in media in plates (96-well, 384-well or other plates) and incubated overnight at 37 C in a CO2 incubator.
# as §1, with “lysed” for “lysed and incubated with a CYP1A1 luciferase-based substrate (e.g. Luciferin-CEE)”, “determination” for “3, 6, or 12 hours of another time point. Determination”, “the AHR activation. Luciferase” for “CYP1A1 enzyme activity”, “Luciferase kit” for “P450 Glo CYP1A1 detection reagent”, “provide the luciferin substrate” for “provide”
Structure (SMILES),"EC50 ([1]; HepG2, Table 3) [nM]",EC50 [5] [nM],further results
FC(F)(F)c1cccc(Nc2nc(-c3cccc(/N=N/c4cccc(-c5csc(Nc6cccc(C(F)(F)F)c6)n5)c4)c3)cs2)c1 [I-41],–,–,"EC50 ([1]; HepG2, Table 2): 100 to 1000 nM; EC50 [2]: > 1000 nM; histology evaluation of inflammation ([3]; DSS model, compared with ITE administration, FIG. 8): comparable activity"
O=C(O)c1cccc(/N=N/c2cccc(-c3csc(Nc4cccc(C(F)(F)F)c4)n3)c2)c1 [I-161],100 to 1000,> 1000,"Cyp1a1 induction in the colon ([4]; C57BL/6N, po): Cyp1a1 induction in the colon at low doses; Cyp1a1 induction in the colon [4]: comparable; Cyp1a1 induction in the liver [4]: significantly less induction; colon:liver ratio of Cyp1a1 expression [4]: colon-preferred activity; inflammation and erosion (histopathology) ([3]; DSS model, relative to vehicle control, FIG. 6, FIG. 19): reduced inflammation and erosion; activity at all doses compared with CSA ([3]; DSS model, FIG. 18B): comparable or better than CSA; histopathology data compared with CSA ([3]; DSS model, FIG. 18B): activity comparable to CSA; inflammation, edema, hyperplasia, and lymphoid aggregate size ([3]; DSS model, FIG. 19): reduction; efficacy in DSS IBD mouse model ([3]; FIGS. 18A-18B): demonstrates efficacy"
Nc1ccccc1-c1csc(Nc2ccccc2C(F)(F)F)n1 [I-172],10 to 100,> 1000,–
O=C(O)c1cccc(/N=N/c2cc(-c3csc(Nc4cccc(C(F)(F)F)c4)n3)ccc2F)c1 [I-173],100 to 1000,100 to 1000,–
O=C(O)c1cccc(/N=N/c2cc(-c3csc(Nc4cccc(C(F)(F)F)c4)n3)c(F)cc2F)c1 [I-174],100 to 1000,100 to 1000,–
FC(F)(F)c1cccc(Nc2nc(-c3cncc(NNc4cncc(-c5csc(Nc6cccc(C(F)(F)F)c6)n5)c4)c3)cs2)c1 [I-175],100 to 1000,100 to 1000,–
O=C(O)c1cc(/N=N/c2cccc(-c3csc(Nc4cccc(C(F)(F)F)c4)n3)c2)cc(C(=O)O)c1 [I-176],> 1000,> 1000,–
Nc1ccccc1-c1csc(Nc2cccc(C(F)(F)F)c2)n1 [I-177],10 to 100,< 10,–
O=C(O)c1cc(/N=N/c2cc(-c3csc(Nc4cccc(C(F)(F)F)c4)n3)ccc2F)ccc1O [I-178],> 1000,> 1000,–
O=C(O)c1cc(/N=N/c2ccc(F)c(-c3csc(Nc4cccc(C(F)(F)F)c4)n3)c2)ccc1O [I-179],100 to 1000,> 1000,–
